As a reminder, the GI50 is the concentration that inhibits growth by half. By TGI is commonly meant the concentration at which net growth stops.

Some test systems named below: SN12C renal; MALME-3M melanoma; MDA-MB-435; HCT-15 colon; BT-549 breast; SR leukemia; UACC-257 melanoma; SF-295 CNS; A498 renal; SW-620 colon.
What all share (experiment): DTP human tumour cell line panel, 48 h

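Method: 48-hour compound exposure of cells in 96-well plates, five concentrations, linear interpolation of endpoints. At the GI50, growth is halved. At the TGI there is no net growth.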 A value given as a limit tells only on which side of the number the result lay.

Turning to `COc1cc(C2=NOC(c3cc(OC)c(OC)c(OC)c3)C2)ccc1OCCCCOc1cc2c(cc1OC)C(=O)N1CCC[C@H]1C=N2` (stereo not given in full), the concentration for 50% growth inhibition (GI50) in the assay on SN12C renal is 0.358 µM; in the assay with MALME-3M melanoma, 0.197 µM; with MDA-MB-435 it was 0.179 µM; in the assay on HCT-15 colon, 1.46 µM; in the assay with BT-549 breast, 0.156 µM; in the assay with SR leukemia, 0.279 µM. Further, the GI50 with UACC-257 melanoma is 0.286 µM; in the assay on SF-295 CNS it was 0.327 µM; in the assay on A498 renal, 0.194 µM; in the assay on SW-620 colon it was 0.246 µM. Further, the TGI in the assay on SN12C renal was determined as 3.51 µM; with MALME-3M melanoma, 0.364 µM; in the assay with MDA-MB-435 it was 0.371 µM; in the assay on HCT-15 colon it was 5.43 µM; in the assay on BT-549 breast it was 0.385 µM; with UACC-257 melanoma, 0.727 µM. The TGI came out at 1.28 µM in the assay with SF-295 CNS, 0.396 µM with A498 renal and 0.855 µM in the assay with SW-620 colon.
As for `CN1CCN(C)C12C=c1ccccc1=CC21CC1`, the concentration for total growth inhibition (TGI) in the assay on SN12C renal is greater than 100 µM; with MALME-3M melanoma, 59 µM; with MDA-MB-435, 48.3 µM; in the assay on HCT-15 colon, 73.6 µM; in the assay with BT-549 breast it was greater than 100 µM; in the assay on SR leukemia, 63.2 µM. For the same molecule, the TGI with UACC-257 melanoma was 48.2 µM; in the assay with SF-295 CNS it was greater than 100 µM; in the assay on A498 renal, greater than 100 µM; in the assay with SW-620 colon, 48.3 µM.
On to `NC(=O)c1ccc(I)c(N)c1`, for which the GI50 with SN12C renal, in the assay with MALME-3M melanoma, in the assay with MDA-MB-435, in the assay on HCT-15 colon, with BT-549 breast and with SR leukemia was greater than 100 µM each time. The GI50 with UACC-257 melanoma, in the assay on SF-295 CNS and with SW-620 colon was greater than 100 µM in each case. The TGI in the assay on SN12C renal, with MALME-3M melanoma, in the assay with MDA-MB-435, in the assay on HCT-15 colon, in the assay with BT-549 breast and in the assay on SR leukemia was greater than 100 µM each time. Also, the concentration for total growth inhibition (TGI) in the assay with UACC-257 melanoma, in the assay on SF-295 CNS and in the assay on SW-620 colon was greater than 100 µM each time.
Consider `Cc1ccc2c(c1)[n+]([O-])c(N)n[n+]2[O-]`, for which the TGI in the assay on SN12C renal, in the assay on MDA-MB-435, in the assay on HCT-15 colon, in the assay on BT-549 breast, in the assay with SR leukemia and in the assay on UACC-257 melanoma was greater than 100 µM each time. Moreover, the TGI in the assay on SF-295 CNS, in the assay with A498 renal and in the assay on SW-620 colon was greater than 100 µM each time.
With `CC(C)(CC(=O)Nc1ccccc1)C(=O)O`, the total growth inhibition concentration (TGI) in the assay on SN12C renal, in the assay on MDA-MB-435, with HCT-15 colon, in the assay with BT-549 breast, in the assay on SR leukemia and with UACC-257 melanoma was greater than 100 µM each time. Also, the total growth inhibition concentration (TGI) with SF-295 CNS, in the assay with A498 renal and in the assay on SW-620 colon was greater than 100 µM throughout.
With `COc1cc([N+](=O)[O-])cc2c3c(n(C)c12)[C@@]1(C)CCC2c4ccc(OCc5ccccc5)cc4CCC2C1C3` (stereo not given in full), the GI50 is greater than 100 µM with SN12C renal; greater than 100 µM in the assay with MALME-3M melanoma; greater than 100 µM in the assay on MDA-MB-435; 53.5 µM in the assay on HCT-15 colon; greater than 100 µM with BT-549 breast; 85.6 µM in the assay on UACC-257 melanoma. Further, the GI50 is 35 µM in the assay with SF-295 CNS, 35.6 µM with A498 renal and 90.6 µM in the assay on SW-620 colon. Further, the TGI in the assay with SN12C renal, in the assay on MALME-3M melanoma, in the assay with MDA-MB-435, in the assay on HCT-15 colon, in the assay on BT-549 breast and with UACC-257 melanoma was greater than 100 µM in each case. Also, the TGI with SF-295 CNS, in the assay with A498 renal and with SW-620 colon was greater than 100 µM in each case.
On to `CC(C)c1nc(CN(C)C(=O)N[C@H](C(=O)N[C@@H](Cc2ccccc2)C[C@H](O)[C@H](Cc2ccccc2)NC(=O)OCc2cncs2)C(C)C)cs1`, for which the GI50 in the assay with SN12C renal is 20.2 µM; in the assay on MALME-3M melanoma it was 22.1 µM; in the assay on MDA-MB-435, 20.1 µM; in the assay with HCT-15 colon, 24.5 µM; in the assay with BT-549 breast, 8.71 µM; with UACC-257 melanoma it was 18.4 µM. The GI50 in the assay on SF-295 CNS was 22.1 µM; in the assay on A498 renal it was 19.1 µM; with SW-620 colon it was 34.9 µM. The concentration for total growth inhibition (TGI) in the assay on SN12C renal is 50.4 µM; with MALME-3M melanoma, greater than 57 µM; in the assay on MDA-MB-435, 57.4 µM; with HCT-15 colon, greater than 100 µM; in the assay on BT-549 breast, greater than 76.5 µM; in the assay on UACC-257 melanoma, 38 µM. The concentration for total growth inhibition (TGI) with SF-295 CNS was 50.5 µM; with A498 renal, 43.2 µM; with SW-620 colon, greater than 100 µM.
`CC/C(=C(/c1ccc(O)cc1)c1ccc(OCCNC)cc1)c1ccccc1`: the GI50 with SN12C renal is 2.19 µM; in the assay on MDA-MB-435 it was 1.54 µM; in the assay with HCT-15 colon, 1.87 µM; with BT-549 breast, 3.37 µM; in the assay on SR leukemia it was 2.09 µM; in the assay with UACC-257 melanoma, 1.64 µM. In addition, the GI50 in the assay on SF-295 CNS was 1.95 µM; in the assay with A498 renal, 1.64 µM; with SW-620 colon it was 1.72 µM. The TGI in the assay on SN12C renal turned out to be 5.78 µM; with MDA-MB-435, 2.98 µM; with HCT-15 colon it was 4.07 µM; with BT-549 breast, 13.9 µM; in the assay on SR leukemia it was 5.46 µM; in the assay on UACC-257 melanoma, 3.15 µM. Also, the TGI turned out to be 3.95 µM in the assay on SF-295 CNS, 6.55 µM with A498 renal and 3.26 µM with SW-620 colon.
In the case of `COc1ccc(-c2cnnc3c(-c4cccc(C(F)(F)F)c4)cnn23)cc1`, the GI50 with SN12C renal was 3.07 µM; in the assay on MDA-MB-435 it was 5.04 µM; in the assay with HCT-15 colon, greater than 100 µM; in the assay on BT-549 breast, 3.4 µM; with SR leukemia, greater than 100 µM; in the assay with UACC-257 melanoma, 6.44 µM. The GI50 in the assay on A498 renal is 3.52 µM; in the assay with SW-620 colon, greater than 100 µM. The TGI with SN12C renal, in the assay on MDA-MB-435, with HCT-15 colon, in the assay with BT-549 breast, in the assay with SR leukemia and in the assay with UACC-257 melanoma was greater than 100 µM throughout. The results for the total growth inhibition concentration (TGI) with A498 renal and in the assay with SW-620 colon were 62.6 µM and greater than 100 µM, respectively.

Values taken from PubChem BioAssay (NCI).
